Structures can show the parent of a compound that is named as a salt.
biological target: truncated PI3Kα (p110α/iSH2 p85α) (Homo sapiens (Human), UniProt P42336); test: PI3KA_Act fluorescence polarization kinase assay (Ki); assay type: biochemical; details: 1 mM ATP
Description: 2) p110α-iSH2 p85α Complex (Full Length p110α and p85α iSH2)(“PI3KA_Act”)
Genes encoding for full length p110α and p85α nSH-iSH2=niSH2 (p85a aminoacids 322-600) subunits of PI3Kα complex were subcloned from existing constructs into pFASTBAC Dual vector (Life Technologies, Carlsbad, Calif.) using standard cloning procedures. Gene encoding p110α subunit was subcloned into polyhedrine promoter while gene encoding p85α niSH2 domains was subcloned into p10 promoter. Additionally, Human Rhinovirus 3C Protease (“HRV 3C”) site was introduced between nSH2 and iSH2, replacing aminoacids 431-438 of p85α with […] HRV 3C recognition sequence, using standard QuickChange mutagenesis protocol (Agilent Technologies, CA). Recombinant baculovirus was generated using Bac-to-Bac protocol (Life Technologies, Carlsbad, Calif.). Large scale expression was conducted in Sf21 (Life Technologies, Carlsbad, Calif.) cells at a multiplicity of infection (“MOI”)=1 for 48 hours. Cells were lyzed in 50 mM Tris pH 8.0, 250 mM NaCl, 5% glycerol, 0.25 mM TCEP, and 20 mM imidazole. The p110α-niSH2 p85α complex was purified from clarified supernatant using Immobilized Metalo Affinity Chromatography (“IMAC”). The protein was eluted from the column using 50 mM Tris pH 8.0, 200 mM NaCl, 0.25 mM TCEP, and 200 mM imidazole. Following elution p110α-niSH2 p85α complex was dialyzed against 4 liters of 50 mM Tris pH 8.0, 200 mM NaCl, 0.25 mM TCEP, and 40 mM imidazole in the presence of PreScission Protease (1:70 molar ratio of Protease to Protein) and TEV protease (1:40 molar ratio protease to protein) for 16 hours at 4° C. The protein was further purified using reverse IMAC to remove cleaved histidine tag and contaminants captured during initial IMAC purification. The mixture of p110α-iSH2 p85α complex and cleaved nSH2 was recovered in reverse IMAC 40 mM imidazole flow through and 60 mM imidazole wash fractions. Those fractions were pulled together and loaded on Superdex 200 26/60 SEC column equilibrated in 25 mM Tris, pH 8.0, 100 mM NaCl, 2% glycerol, and 2 mM TCEP. Following SEC, chromatography peak fractions containing p110α-iSH2 p85α complex were pulled and concentrated to 4.3 mg/mL. Purity and integrity of the complex was confirmed using LCMS, analytical SEC and SDS-PAGE (sodium dodecyl sulfate polyacrylamide gel electrophoresis) analysis.
The biochemical assays of kinase activity of full-length PI3Kα (full-length p110α/p85a) or truncated PI3Kα (p110α/iSH2 p85a) were conducted using a fluorescence polarization format similar to the procedure of Yuan J., et al., (2011) “PF-04691502, a Potent and Selective Oral Inhibitor of PI3K and mTOR Kinases with Antitumor Activity”, Mol Cancer Ther. 10, 2189-2199. The enzymatic reactions were conducted in 50 μL volumes in 96-well plates. The reactions contained human recombinant PI3Kα (2 nM full-length p110α/p85α or 0.5 nM p110α/iSH2 p85) and 30 μM phosphatidylinositol 4,5-bisphosphate (“PIP2”) (Cayman Chemical Company, Ann Arbor, Mich.) and were sonicated for 1 minute prior to adding PI3Kα enzyme (PI3KA_Act or PI3KA_FL), DMSO or test compound (12-point 3-fold serial dilution, 3 μM top dose, 2° A) DMSO final concentration), 5 mM MgCl2, 50 mM HEPES pH 7.4, 150 mM NaCl, 1 mM DTT ((2S,3S)-1,4-bis(sulfanyl)butane-2,3-diol), and 0.05% 3-[(3-cholamidopropyl)dimethylammonio]-1-propanesulfonate (“CHAPS”). […] The reactions were incubated for 30 min at room temperature, stopped with EDTA pH 8 (10 mM final concentration). In a detection plate, 15 μL of detector/probe mixture, containing 480 nM GST-Grp1 PH domain protein (University of Dundee, Dundee, UK) and 12 nM carboxytetramethylrhodamine (“TAMRA”)-tagged fluorescent phosphatidylinositol (3,4,5)-triphosphate (“PIP3”) (Echelon Biosciences, Inc., Salt Lake City, Utah) in assay buffer, was mixed with 15 μL of kinase reaction mixture. The plate was shaken for 30 minutes and fluorescence polarization values were measured on an LJL Analyst HT plate reader (Molecular Devices, Sunnyvale, Calif.). […]

truncated PI3Kα (p110α/iSH2 p85α), sequence (P42336 whole entry, the tested form may be a part): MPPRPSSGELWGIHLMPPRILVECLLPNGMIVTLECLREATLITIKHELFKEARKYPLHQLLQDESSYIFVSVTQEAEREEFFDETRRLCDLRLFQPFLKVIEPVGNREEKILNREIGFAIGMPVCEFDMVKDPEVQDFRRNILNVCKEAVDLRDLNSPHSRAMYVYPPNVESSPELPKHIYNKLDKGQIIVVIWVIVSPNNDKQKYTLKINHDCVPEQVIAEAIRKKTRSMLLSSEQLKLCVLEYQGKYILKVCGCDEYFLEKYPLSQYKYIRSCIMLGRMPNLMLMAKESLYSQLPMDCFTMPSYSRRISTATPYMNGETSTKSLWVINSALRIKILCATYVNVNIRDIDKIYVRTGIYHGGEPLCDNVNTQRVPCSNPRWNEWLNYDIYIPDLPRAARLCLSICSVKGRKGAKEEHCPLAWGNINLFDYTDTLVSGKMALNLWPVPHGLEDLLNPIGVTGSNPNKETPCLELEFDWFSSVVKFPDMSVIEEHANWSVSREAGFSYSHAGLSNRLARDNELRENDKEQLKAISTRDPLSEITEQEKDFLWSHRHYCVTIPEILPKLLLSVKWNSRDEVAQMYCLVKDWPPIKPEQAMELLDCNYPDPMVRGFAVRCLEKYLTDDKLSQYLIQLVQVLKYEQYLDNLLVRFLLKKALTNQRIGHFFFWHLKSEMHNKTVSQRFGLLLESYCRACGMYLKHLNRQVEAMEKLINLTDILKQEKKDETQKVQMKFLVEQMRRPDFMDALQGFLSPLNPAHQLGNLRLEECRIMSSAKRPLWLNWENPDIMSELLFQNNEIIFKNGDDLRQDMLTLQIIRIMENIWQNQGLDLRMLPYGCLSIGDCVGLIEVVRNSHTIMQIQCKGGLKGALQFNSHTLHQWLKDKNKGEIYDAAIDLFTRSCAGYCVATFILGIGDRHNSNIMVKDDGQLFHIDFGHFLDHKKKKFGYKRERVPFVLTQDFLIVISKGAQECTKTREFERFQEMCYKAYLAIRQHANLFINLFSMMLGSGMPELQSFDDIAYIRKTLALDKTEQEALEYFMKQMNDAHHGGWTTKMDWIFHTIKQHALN

With CNS(=O)(=O)N1CCC(C)(N2CCc3c(-c4cnc(N)nc4)nc(N4CCOCC4)nc32)C1 (racemic) [Example 162] the “PI3KA_Act Ki” value was under 0.018 nM.
C[C@H]1COCCN1c1nc(-c2cnc(N)nc2)c2c(n1)N([C@@]1(C)CCN(C3CCNC3=O)C1)CC2 (single isomer, unassigned) [Example 515] was tested, and the “PI3KA_Act Ki” value was under 0.081 nM.

In order of falling “PI3KA_Act Ki” value:
1. Nc1ncc(-c2nc(N3CCOC[C@H]3CO)nc3c2CCN3C2CC(F)(F)C2)cn1 [Example 3, {(3R)-4-[4-(2-aminopyrimidin-5-yl)-7-(3,3-difluorocyclobutyl)-6,7-dihydro-5H-pyrrolo[2,3-d]pyrimidin-2-yl]morpholin-3-yl}methanol]  118.146 nM
2. CC(C)(C)OC(=O)N1CCCC(C)(N2CCc3c(-c4cnc(N)nc4)nc(N4CCOCC4)nc32)C1 (racemic) [Example 434, tert-butyl 3-[4-(2-aminopyrimidin-5-yl)-2-(morpholin-4-yl)-5,6-dihydro-7H-pyrrolo[2,3-d]pyrimidin-7-yl]-3-methylpiperidine-1-carboxylate]  0.220 nM
3. C[C@]1(N2CCc3c(-c4cnc(N)nc4)nc(N4CCOCC4)nc32)CCN(C2CCCNC2=O)C1 (single isomer, unassigned) [Example 429]  0.160 nM
4. CNC(=O)N1CC[C@@](C)(N2CCc3c(-c4cnc(N)nc4)nc(N4CCOCC4)nc32)C1 [Example 2, (3R)-3-[4-(2-aminopyrimidin-5-yl)-2-(morpholin-4-yl)-5,6-dihydro-7H-pyrrolo[2,3-d]pyrimidin-7-yl]-N,3-dimethylpyrrolidine-1-carboxamide]  0.160 nM
5. CCC(C)(O)C(=O)N1CC[C@](C)(N2CCc3c(-c4cnc(N)nc4)nc(N4CCOCC4)nc32)C1 (single isomer, unassigned) [Example 274]  0.145 nM
6. CS(=O)(=O)N1CC2CC2(N2CCc3c(-c4cnc(N)nc4)nc(N4CCOCC4)nc32)C1 (racemic) [Example 435, 5-{7-[3-(methylsulfonyl)-3-azabicyclo[3.1.0]hex-1-yl]-2-(morpholin-4-yl)-6,7-dihydro-5H-pyrrolo[2,3-d]pyrimidin-4-yl}pyrimidin-2-amine]  0.132 nM
7. C[C@]1(N2CCc3c(-c4cnc(N)nc4)nc(N4CCOCC4)nc32)CCN(C2CCNC2=O)C1 (single isomer, unassigned) [Example 7]  0.091 nM
8. CC1(C(=O)N2CC[C@](C)(N3CCc4c(-c5cnc(N)nc5)nc(N5CCOCC5)nc43)C2)CCCO1 (single isomer, unassigned) [Example 376]  0.090 nM
9. CCC(C)(O)C(=O)N1CC[C@](C)(N2CCc3c(-c4cnc(N)nc4)nc(N4CCOCC4)nc32)C1 (single isomer, unassigned) [Example 273]  0.087 nM
10. CN1CCC(N2CC[C@](C)(N3CCc4c(-c5cnc(N)nc5)nc(N5CCOCC5)nc43)C2)C1=O (single isomer, unassigned) [Example 427]  0.073 nM
11. C[C@H]1COCCN1c1nc(-c2cnc(N)nc2)c2c(n1)N([C@@]1(C)CCN(C3CCNC3=O)C1)CC2 (single isomer, unassigned) [Example 514]  0.068 nM
12. C[C@]1(N2CCc3c(-c4cnc(N)nc4)nc(N4CCOCC4)nc32)CCN(C2CCCNC2=O)C1 (single isomer, unassigned) [Example 428]  0.067 nM
13. CN1CCC(N2CC[C@](C)(N3CCc4c(-c5cnc(N)nc5)nc(N5CCOCC5)nc43)C2)C1=O (single isomer, unassigned) [Example 426]  0.051 nM
14. C[C@@]1(N2CCc3c(-c4cnc(N)nc4)nc(N4CCOCC4)nc32)CCN(C(=O)C(O)C2CC2)C1 (single isomer, unassigned) [Example 326]  0.048 nM
15. C[C@@]1(N2CCc3c(-c4cnc(N)nc4)nc(N4CCOCC4)nc32)CCN(C(=O)C(O)C2CC2)C1 (single isomer, unassigned) [Example 327]  0.028 nM
16. C[C@H]1COCCN1c1nc(-c2cnc(N)nc2)c2c(n1)N([C@@]1(C)CCN(C(=O)C(C)(C)N)C1)CC2 [Example 5, 2-amino-1-[(3S)-3-{4-(2-aminopyrimidin-5-yl)-2-[(3S)-3-methylmorpholin-4-yl]-5,6-dihydro-7H-pyrrolo[2,3-d]pyrimidin-7-yl}-3-methylpyrrolidin-1-yl]-2-methylpropan-1-one]  0.024 nM
17. CC(C)(N)C(=O)N1CC[C@](C)(N2CCc3c(-c4cnc(N)nc4)nc(N4CCOCC4)nc32)C1 [Example 4, 2-amino-1-{(3S)-3-[4-(2-aminopyrimidin-5-yl)-2-(morpholin-4-yl)-5,6-dihydro-7H-pyrrolo[2,3-d]pyrimidin-7-yl]-3-methylpyrrolidin-1-yl}-2-methylpropan-1-one]  0.023 nM
18. CC(C(N)=O)C(=O)N1CC[C@](C)(N2CCc3c(-c4cnc(N)nc4)nc(N4CCOCC4)nc32)C1 (single isomer, unassigned) [Example 316]  0.019 nM

In order of falling Ki:
1. CS(=O)(=O)N1C[C@H]2C[C@@H]1[C@@H]2N1CCc2c(-c3cnc(N)nc3)nc(N3CCOCC3)nc21 (single isomer, unassigned) [Example 439]  1.51 nM
2. CS(=O)(=O)N1C[C@H]2C[C@@H]1[C@@H]2N1CCc2c(-c3cnc(N)nc3)nc(N3CCOCC3)nc21 (single isomer, unassigned) [Example 440]  0.178 nM

same assay, conditions: 1 mM ATP, hydrochloride

In order of falling “PI3KA_Act Ki” value:
1. CC1(N2CCc3c(-c4cnc(N)nc4)nc(N4CCOCC4)nc32)CCCNC1 (single isomer, unassigned) [Example 431, 5-[7-(3-methylpiperidin-3-yl)-2-(morpholin-4-yl)-6,7-dihydro-5H-pyrrolo[2,3-d]pyrimidin-4-yl]pyrimidin-2-amine hydrochloride]  14.544 nM
2. CC1(N2CCc3c(-c4cnc(N)nc4)nc(N4CCOCC4)nc32)CCCNC1 (single isomer, unassigned) [Example 432, 5-[7-(3-methylpiperidin-3-yl)-2-(morpholin-4-yl)-6,7-dihydro-5H-pyrrolo[2,3-d]pyrimidin-4-yl]pyrimidin-2-amine hydrochloride]  11.739 nM
3. C[C@H]1COCCN1c1nc(-c2cnc(N)nc2)c2c(n1)N(C1(C)CCCNC1)CC2 (single isomer, unassigned) [Example 518, hydrochloride]  11.285 nM
4. C[C@H]1COCCN1c1nc(-c2cnc(N)nc2)c2c(n1)N(C1(C)CCCNC1)CC2 (single isomer, unassigned) [Example 517, hydrochloride]  9.319 nM
5. C[C@H]1COCCN1c1nc(-c2cnc(N)nc2)c2c(n1)N([C@@]1(C)CCN(C(=O)C3(N)CCOC3)C1)CC2 (single isomer, unassigned) [Example 503, hydrochloride]  0.091 nM
6. C[C@H]1COCCN1c1nc(-c2cnc(N)nc2)c2c(n1)N([C@@]1(C)CCN(C(=O)C3(N)CCOC3)C1)CC2 (single isomer, unassigned) [Example 502, hydrochloride]  0.064 nM
7. CC1(C(=O)N2CC[C@](C)(N3CCc4c(-c5cnc(N)nc5)nc(N5CCOCC5)nc43)C2)CCCO1 (single isomer, unassigned) [Example 375, hydrochloride]  0.043 nM
